Test results from the NIST ThermoML archive (doi:10.1016/j.jct.2007.05.011).
Numbers after ± are expanded uncertainties.

Assay: xn = mol fraction of the nth substance listed
Conditions: 101 kPa, Liquid; for mass density: Vibrating tube method

NCCO.O=CO [2-hydroxyethylammonium formate] + O
Conditions	mass density [kg/m3]	speed of sound [m/s]
288.15 K, x2 = 0	1183.57 ± 31	1733.9 ± 9.9
288.15 K, x2 = 0.047	1182.89 ± 31	1759.2 ± 9.9
288.15 K, x2 = 0.108	1181.45 ± 31	1760.3 ± 9.7
288.15 K, x2 = 0.199	1178.55 ± 30	1761.4 ± 9.6
288.15 K, x2 = 0.311	1173.68 ± 30	1761.4 ± 9.3
288.15 K, x2 = 0.4	1168.78 ± 30	1759.7 ± 9.2
288.15 K, x2 = 0.492	1162.23 ± 30	1757.1 ± 9
288.15 K, x2 = 0.601	1151.56 ± 30	1749.9 ± 8.9
288.15 K, x2 = 0.699	1137.39 ± 30	1739.3 ± 8.7
288.15 K, x2 = 0.8	1114.92 ± 30	1710.8 ± 8.5
288.15 K, x2 = 0.9	1076.21 ± 30	1644.7 ± 8.2
288.15 K, x2 = 0.95	1045.03 ± 30	1578.9 ± 8
290.65 K, x2 = 0	1181.81 ± 31	1727.4 ± 9.9
290.65 K, x2 = 0.047	1181.24 ± 31	1754 ± 9.8
290.65 K, x2 = 0.108	1179.79 ± 31	1755.5 ± 9.7
290.65 K, x2 = 0.199	1176.92 ± 30	1756.4 ± 9.5
290.65 K, x2 = 0.311	1172.05 ± 30	1756.7 ± 9.3
290.65 K, x2 = 0.4	1167.17 ± 30	1755.1 ± 9.2
290.65 K, x2 = 0.492	1160.63 ± 30	1752.9 ± 9
290.65 K, x2 = 0.601	1149.99 ± 30	1746.3 ± 8.8
290.65 K, x2 = 0.699	1135.87 ± 30	1736.3 ± 8.7
290.65 K, x2 = 0.8	1113.52 ± 30	1709.2 ± 8.5
290.65 K, x2 = 0.9	1075.06 ± 30	1645.8 ± 8.2
290.65 K, x2 = 0.95	1044.13 ± 30	1582.3 ± 7.9
293.15 K, x2 = 0	1180.04 ± 31	1721.3 ± 9.8
293.15 K, x2 = 0.047	1179.6 ± 31	1748.9 ± 9.8
293.15 K, x2 = 0.108	1178.13 ± 30	1750.5 ± 9.7
293.15 K, x2 = 0.199	1175.29 ± 30	1751.4 ± 9.5
293.15 K, x2 = 0.311	1170.43 ± 30	1752 ± 9.3
293.15 K, x2 = 0.4	1165.55 ± 30	1750.6 ± 9.1
293.15 K, x2 = 0.492	1159.04 ± 30	1748.7 ± 9
293.15 K, x2 = 0.601	1148.42 ± 30	1742.6 ± 8.8
293.15 K, x2 = 0.699	1134.35 ± 30	1733.3 ± 8.7
293.15 K, x2 = 0.8	1112.1 ± 30	1707.5 ± 8.5
293.15 K, x2 = 0.9	1073.89 ± 30	1646.8 ± 8.2
293.15 K, x2 = 0.95	1043.2 ± 30	1585.6 ± 8
295.65 K, x2 = 0	1178.27 ± 31	1715.1 ± 9.8
295.65 K, x2 = 0.047	1177.95 ± 31	1743.8 ± 9.8
295.65 K, x2 = 0.108	1176.52 ± 30	1745.4 ± 9.7
295.65 K, x2 = 0.199	1173.65 ± 30	1746.5 ± 9.5
295.65 K, x2 = 0.311	1168.8 ± 30	1747.2 ± 9.3
295.65 K, x2 = 0.4	1163.94 ± 30	1746.1 ± 9.1
295.65 K, x2 = 0.492	1157.44 ± 30	1744.4 ± 9
295.65 K, x2 = 0.601	1146.85 ± 30	1738.9 ± 8.8
295.65 K, x2 = 0.699	1132.83 ± 30	1730.2 ± 8.7
295.65 K, x2 = 0.8	1110.67 ± 30	1705.6 ± 8.5
295.65 K, x2 = 0.9	1072.7 ± 30	1647.6 ± 8.2
295.65 K, x2 = 0.95	1042.26 ± 30	1588.8 ± 8
298.15 K, x2 = 0	1176.49 ± 31	1709 ± 9.8
298.15 K, x2 = 0.047	1176.31 ± 31	1738.7 ± 9.8
298.15 K, x2 = 0.108	1174.91 ± 30	1740.4 ± 9.7
298.15 K, x2 = 0.199	1172.02 ± 30	1741.6 ± 9.5
298.15 K, x2 = 0.311	1167.18 ± 30	1742.5 ± 9.3
298.15 K, x2 = 0.4	1162.32 ± 30	1741.6 ± 9.1
298.15 K, x2 = 0.492	1155.83 ± 30	1740.2 ± 9
298.15 K, x2 = 0.601	1145.28 ± 30	1735.1 ± 8.8
298.15 K, x2 = 0.699	1131.3 ± 30	1727.1 ± 8.7
298.15 K, x2 = 0.8	1109.23 ± 30	1703.7 ± 8.5
298.15 K, x2 = 0.9	1071.48 ± 30	1648.3 ± 8.2
298.15 K, x2 = 0.95	1041.28 ± 30	1591.7 ± 8
300.65 K, x2 = 0	1174.71 ± 31	1702.9 ± 9.8
300.65 K, x2 = 0.047	1174.67 ± 31	1733.6 ± 9.8
300.65 K, x2 = 0.108	1173.29 ± 30	1735.3 ± 9.7
300.65 K, x2 = 0.199	1170.39 ± 30	1736.7 ± 9.5
300.65 K, x2 = 0.311	1165.55 ± 30	1737.8 ± 9.2
300.65 K, x2 = 0.4	1160.7 ± 30	1737.1 ± 9.1
300.65 K, x2 = 0.492	1154.23 ± 30	1735.9 ± 8.9
300.65 K, x2 = 0.601	1143.7 ± 30	1731.2 ± 8.8
300.65 K, x2 = 0.699	1129.77 ± 30	1723.9 ± 8.7
300.65 K, x2 = 0.8	1107.79 ± 30	1701.8 ± 8.5
300.65 K, x2 = 0.9	1070.24 ± 30	1648.7 ± 8.2
300.65 K, x2 = 0.95	1040.27 ± 30	1594.4 ± 8
303.15 K, x2 = 0	1172.94 ± 31	1696.8 ± 9.8
303.15 K, x2 = 0.047	1173.02 ± 31	1728.5 ± 9.8
303.15 K, x2 = 0.108	1171.66 ± 30	1730.3 ± 9.6
303.15 K, x2 = 0.199	1168.76 ± 30	1731.8 ± 9.4
303.15 K, x2 = 0.311	1163.93 ± 30	1733.1 ± 9.2
303.15 K, x2 = 0.4	1159.09 ± 30	1732.6 ± 9.1
303.15 K, x2 = 0.492	1152.62 ± 30	1731.6 ± 8.9
303.15 K, x2 = 0.601	1142.12 ± 30	1727.4 ± 8.8
303.15 K, x2 = 0.699	1128.22 ± 30	1720.7 ± 8.6
303.15 K, x2 = 0.8	1106.33 ± 30	1699.7 ± 8.5
303.15 K, x2 = 0.9	1068.98 ± 30	1649 ± 8.2
303.15 K, x2 = 0.95	1039.22 ± 30	1596.8 ± 8
305.65 K, x2 = 0	1171.16 ± 31	–
305.65 K, x2 = 0.047	1171.38 ± 31	–
305.65 K, x2 = 0.108	1170.03 ± 30	–
305.65 K, x2 = 0.199	1167.12 ± 30	–
305.65 K, x2 = 0.311	1162.3 ± 30	–
305.65 K, x2 = 0.4	1157.47 ± 30	–
305.65 K, x2 = 0.492	1151.02 ± 30	–
305.65 K, x2 = 0.601	1140.53 ± 30	–
305.65 K, x2 = 0.699	1126.67 ± 30	–
305.65 K, x2 = 0.8	1104.86 ± 30	–
305.65 K, x2 = 0.9	1067.69 ± 30	–
305.65 K, x2 = 0.95	1038.12 ± 30	–
